Source: patent US20230158025A1 (UNIVERSITY OF UTAH RESEARCH FOUNDATION, priority 2020, published 2023)
Read-outs that look alike come from different tables or passages of the source.

Experiments:
hGALK1m = biological target: T1, hGALK1m (Homo sapiens, UniProt P51570, E253A/K252A); assay: in vitro hGALK1 activity assay of the structure-based optimisation (Example 12, Tables 17-20); assay type: biochemical; conditions: for fold decrease of potency versus parent compound: loss of potency relative to the unsubstituted parent
T1 construct: made in house; host or cells: E. coli HMS174
Experimental: In vitro hGALK1 activity assays were performed as previously described. Liu et al., Bioorg. Med. Chem. Lett. 25(3): 721-727 (2015), which is incorporated by reference herein for the specific teachings thereof. The biochemical assay was performed by coupling the activity of recombinant human or mouse GALK1 to the Kinase-Glo Plus luminescent ATP detection kit, using ATP depletion as a measure of GALK1 turnover. Specifically, three μL/well of ATP substrate solution (35 μM ATP) in assay buffer (20 mM HEPES pH 8.0, 5 mM MgCl2, 60 mM NaCl, 1 mM DTT, 0.01% BSA final concentration) was dispensed into 1536-well assay plates (Greiner, white solid-bottom medium-binding plates). Aliquots of compound (23 nL solubilized in DMSO) were transferred to the assay plates using a Kalypsys 1536-well pintool such that 11 concentrations with 1/3 dilutions ranging from 57.4 μM-0.97 nM are tested. One μL/well of GALK-galactose solution (5 nM GALK1, 100 μM galactose) in assay buffer was then added, yielding a final reaction volume of 4 μL/well. Following a 1-hour room temperature incubation, 4 μL of Kinase-Glo Plus detection reagent was added to provide an ATP-dependent luminescent readout (final assay volume: 8 μL/well). Luminescence was detected using a ViewLux plate reader (PerkinElmer) after a 10-minute incubation, using a 1 second exposure time and 2× binning.
The in vitro hGALK1 activity assay was performed as previously described. Liu et al., Bioorg. Med. Chem. Lett. 25(3): 721-727 (2015). For the measurement of cellular Gal-1P reduction, compounds at different concentrations were added to cultured patient fibroblast at 80% confluency. After incubating the compounds for 16 hours, 10 mM galactose was added to the culture. After another 4 hours, cells were washed with cold PBS buffer 3× and harvested for gal-1P measurement, according to the previously published method. Liu et al., Bioorg. Med. Chem. Lett. 25(3): 721-727 (2015).

[1] = rat microsomal stability (RLM); conditions: for half-life: rat, rat liver microsomes
recombinant mouse GALK1 = recombinant mouse GALK1 (Mus musculus, UniProt Q9R0N0); assay: mGALK1 biochemical activity assay (Kinase-Glo Plus, ATP depletion)
Summary of the method: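 Recombinant GALK1 (5 nM) with 100 μM galactose; GALK1 turnover read as ATP depletion by Kinase-Glo Plus luminescence. Reaction ran 1 h at room temperature before detection reagent was added.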

recombinant human GALK1 = recombinant human GALK1 (Homo sapiens, UniProt P51570); assay: hGALK1 biochemical activity assay (Kinase-Glo Plus, ATP depletion)
Summary of the method: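 Turnover is measured as ATP depletion by Kinase-Glo Plus luminescence after a 1 h room-temperature reaction. Compounds span 11 concentrations, 57.4 μM–0.97 nM, in final 20 mM HEPES pH 8.0 with 5 mM MgCl2. The substrate solution held 35 μM ATP; the added solution held 5 nM human or mouse GALK1 and 100 μM galactose.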

PAMPA permeability = conditions: for Papp: ADME P: PAMPA permeability (class), Tables 17-19, class probably colour-coded, colour lost
[2] = aqueous kinetic solubility
[3] = Tables 18-19, read-out: Max Response (%)
[4] = Tables 18-19 and text of Example 12
[5] = Tables 2-15, 35 μM ATP, 100 μM galactose, 1 h, bracketed figure after some values is undefined and not reported, read-out: mGALK IC50
[6] = recombinant mouse GALK1, Kinase-Glo Plus ATP depletion, read-out: mGALK
[7] = Tables 2-15, 35 μM ATP, 100 μM galactose, 1 h, bracketed figure after some values (e.g. −1.2) is undefined and not reported, read-out: hGALK IC50
[8] = recombinant human GALK1, Kinase-Glo Plus ATP depletion, read-out: hGALK
[9] = 1 h, Table 17, read-out: Efficacy
[10] = Table 17, amide group optimization, no unit in table
[11] = Tables 2-15, 35 μM ATP, 100 μM galactose, 1 h, bracketed figure after some values is undefined and not reported
[12] = recombinant mouse GALK1, Kinase-Glo Plus ATP depletion
[13] = Tables 18-20 and text of Example 12

Sequence of recombinant mouse GALK1 (Q9R0N0 whole entry): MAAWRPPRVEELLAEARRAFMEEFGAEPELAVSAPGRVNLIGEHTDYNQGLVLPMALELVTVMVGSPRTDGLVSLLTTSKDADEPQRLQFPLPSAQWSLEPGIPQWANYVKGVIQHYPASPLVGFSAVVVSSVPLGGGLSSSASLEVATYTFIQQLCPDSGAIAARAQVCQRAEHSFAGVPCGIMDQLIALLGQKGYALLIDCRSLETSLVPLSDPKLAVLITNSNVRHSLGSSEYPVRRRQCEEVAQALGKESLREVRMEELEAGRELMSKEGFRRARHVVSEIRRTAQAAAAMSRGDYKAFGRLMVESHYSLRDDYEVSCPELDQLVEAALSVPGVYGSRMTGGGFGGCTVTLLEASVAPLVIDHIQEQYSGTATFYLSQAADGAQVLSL
T1 sequence (P51570 whole entry K252A/E253A): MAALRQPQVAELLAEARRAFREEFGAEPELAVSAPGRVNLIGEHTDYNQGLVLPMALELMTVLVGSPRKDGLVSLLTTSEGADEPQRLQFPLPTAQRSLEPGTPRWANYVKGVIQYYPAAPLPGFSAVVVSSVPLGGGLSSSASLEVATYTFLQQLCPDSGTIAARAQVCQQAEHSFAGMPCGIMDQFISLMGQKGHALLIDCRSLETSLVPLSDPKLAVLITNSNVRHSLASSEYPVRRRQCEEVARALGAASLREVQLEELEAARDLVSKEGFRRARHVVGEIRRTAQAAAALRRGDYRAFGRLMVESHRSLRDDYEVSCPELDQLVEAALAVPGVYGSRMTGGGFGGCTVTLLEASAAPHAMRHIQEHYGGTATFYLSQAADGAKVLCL
Sequence of recombinant human GALK1 (P51570 whole entry): as the sequence (P51570 whole entry K252A/E253A) above, with A252K, A253E counted along it

CC1=C(C(=O)Nc2cc(C(=O)O)ccn2)C(c2cccc(F)c2Cl)N=C(Nc2nc3ccc(F)cc3o2)N1 (centres unmarked) [Compound 48, 2-(4-(2-chloro-3-fluorophenyl)-2-((6-fluorobenzo[d]oxazol-2-yl)amino)-6-methyl-1,4-dihydropyrimidine-5-carboxamido)isonicotinic acid]
change of potency versus parent compound (in words) (hGALK1m): compromised the potency | Emax (hGALK1m; [3]): 100% | IC50 (hGALK1m; [4]): 1.8 µM | half-life [1]: < 10 min | IC50 (recombinant mouse GALK1; [5]): 15.3 µM | IC50 (recombinant mouse GALK1; [6]): 15.3 µM | IC50 (recombinant human GALK1; [7]): 4.85 µM | IC50 (recombinant human GALK1; [8]): 4.85 µM | Papp (PAMPA permeability; PAMPA): < 10 ×10⁻⁶ cm/s

CC1=C(C(=O)Nc2nnc(C)s2)C(c2ccccc2Cl)N=C(Nc2nc3ccccc3o2)N1 (centres unmarked) [Compound 173, 2-(benzo[d]oxazol-2-ylamino)-4-(2-chlorophenyl)-6-methyl-N-(5-methyl-1,3,4-thiadiazol-2-yl)-1,4-dihydropyrimidine-5-carboxamide]
Emax (hGALK1m; [9]): 95% | IC50 (hGALK1m; [10]): 3.9 µM | Metab. Stabil. (m) ([1]; microsomal stability half-life): >30 m | half-life [1]: < 10 min | IC50 (recombinant mouse GALK1; [5]): 10.9 µM | IC50 (recombinant human GALK1; [7]): 5.44 µM | Perm. (1 × 10^−6 cm/sec) (PAMPA permeability; PAMPA): 23.75 1 × 10^−6 cm/sec | Papp (PAMPA permeability; PAMPA): < 10 ×10⁻⁶ cm/s | Sol. ([2]; aqueous kinetic solubility): <1 µg/mL

CC1=C(C(=O)NCc2nccn2C)C(c2ccccc2Cl)N=C(Nc2nc3ccccc3o2)N1 (centres unmarked) [Compound 231]
Emax (hGALK1m; [9]): 94% | IC50 (hGALK1m; [10]): 11 µM | Metab. Stabil. (m) ([1]; microsomal stability half-life): 6.415 m | half-life [1]: < 10 min | IC50 (recombinant mouse GALK1; [5]): 13.7 µM | IC50 (recombinant mouse GALK1; [6]): 13.7 µM | IC50 (recombinant human GALK1; [8]): 15.3 µM | Perm. (1 × 10^−6 cm/sec) (PAMPA permeability; PAMPA): >1113 1 × 10^−6 cm/sec | Papp (PAMPA permeability; PAMPA): < 10 ×10⁻⁶ cm/s | Sol. ([2]; aqueous kinetic solubility): 23.0 µg/mL

COc1cccc2nc(NC3=NC(c4ccccc4Cl)C(C(=O)Nc4cc(C(=O)O)ccn4)=C(C)N3)oc12 (centres unmarked) [Compound 22, 2-(4-(2-chlorophenyl)-2-((7-methoxybenzo[d]oxazol-2-yl)amino)-6-methyl-1,4-dihydropyrimidine-5-carboxamido)isonicotinic acid]
change of potency versus parent compound (in words) (hGALK1m): greatly compromised the potencies | Emax (hGALK1m; [3]): 80% | IC50 (hGALK1m; [4]): > 15 µM | fold decrease of potency versus parent compound (hGALK1m): 3.6 fold | Metab. Stabil. (m) ([1]; microsomal half-life): >30 m | half-life [1]: < 10 min | mGALK IC50 (recombinant mouse GALK1; [11]): inactive | mGALK (μM) (recombinant mouse GALK1; [12]): in- active | IC50 (recombinant human GALK1; [8]): 21.7 µM | Perm. (1 × 10^−6 cm/sec) (PAMPA permeability): <1 1 × 10^−6 cm/sec | Papp (PAMPA permeability; PAMPA): < 10 ×10⁻⁶ cm/s | Sol. [2]: 65.7 µg/mL

CC1=C(C(=O)Nc2cc(C(=O)O)ccn2)C(c2ccccc2Cl)N=C(Nc2nc3ccc(C)cc3o2)N1 (centres unmarked) [Compound 6, 2-(4-(2-chlorophenyl)-6-methyl-2-((6-methylbenzo[d]oxazol-2-yl)amino)-1,4-dihydropyrimidine-5-carboxamido)isonicotinic acid]
Emax (hGALK1m; [3]): 100% | IC50 (hGALK1m; [4]): 6.9 µM | fold decrease of potency versus parent compound (hGALK1m): ~7 fold | Metab. Stabil. (m) ([1]; microsomal half-life): >30 m | half-life [1]: < 10 min | IC50 (recombinant mouse GALK1; [5]): 17.2 µM | IC50 (recombinant mouse GALK1; [6]): 17.2 µM | IC50 (recombinant human GALK1; [7]): 5.44 µM | Perm. (1 × 10^−6 cm/sec) (PAMPA permeability): <1 1 × 10^−6 cm/sec | Papp (PAMPA permeability; PAMPA): < 10 ×10⁻⁶ cm/s | Sol. [2]: 34.42 µg/mL

CC1=C(C(=O)Nc2cc(C(=O)O)ccn2)C(c2cccc(C(F)(F)F)c2)N=C(Nc2nc3ccc(F)cc3o2)N1 (centres unmarked) [Compound 77, 2-(2-((6-fluorobenzo[d]oxazol-2-yl)amino)-6-methyl-4-(3-(trifluoromethyl)phenyl)-1,4-dihydropyrimidine-5-carboxamido)isonicotinic acid]
change of potency versus parent compound (in words) (hGALK1m): compromised the potency | Emax (hGALK1m; [3]): 90% | IC50 (hGALK1m; [4]): > 15 µM | Metab. Stabil. (m) ([1]; microsomal half-life): >30 m | half-life [1]: < 10 min | mGALK IC50 (recombinant mouse GALK1; [11]): inactive | mGALK (μM) (recombinant mouse GALK1; [12]): in- active | IC50 (recombinant human GALK1; [7]): 19.3 µM | IC50 (recombinant human GALK1; [8]): 19.3 µM | Perm. (1 × 10^−6 cm/sec) (PAMPA permeability): <1 1 × 10^−6 cm/sec | Papp (PAMPA permeability; PAMPA): < 10 ×10⁻⁶ cm/s | Sol. [2]: 60.1 µg/mL

CC1=C(C(=O)Nc2cc(C(=O)O)ccn2)C(c2ccccc2Br)N=C(Nc2nc3ccc(F)cc3o2)N1 (centres unmarked) [Compound 75, 2-(4-(2-bromophenyl)-2-((6-fluorobenzo[d]oxazol-2-yl)amino)-6-methyl-1,4-dihydropyrimidine-5-carboxamido)isonicotinic acid]
change of potency versus parent compound (in words) (hGALK1m): little impact on the potency | Emax (hGALK1m; [3]): 100% | IC50 (hGALK1m; [13]): 0.235 µM | Metab. Stabil. (m) ([1]; microsomal half-life): >30 m | half-life [1]: < 10 min | IC50 (recombinant mouse GALK1; [5]): 3.85 µM | IC50 (recombinant mouse GALK1; [6]): 3.85 µM | IC50 (recombinant human GALK1; [7]): 0.54 µM | Papp (PAMPA permeability; PAMPA): < 10 ×10⁻⁶ cm/s | Sol. [2]: 36.0 µg/mL

CC1=C(C(=O)NCc2cncn2C)C(c2ccccc2Cl)N=C(Nc2nc3ccccc3o2)N1 (centres unmarked) [Compound 230, 2-(benzo[d]oxazol-2-ylamino)-4-(2-chlorophenyl)-6-methyl-N-((1-methyl-1H-imidazol-5-yl)methyl)-1,4-dihydropyrimidine-5-carboxamide]
Emax (hGALK1m; [9]): 98% | IC50 (hGALK1m; [10]): 1.4 µM | Metab. Stabil. (m) ([1]; microsomal stability half-life): 8.8722 m | half-life [1]: < 10 min | IC50 (recombinant mouse GALK1; [5]): 6.85 µM | IC50 (recombinant mouse GALK1; [6]): 6.85 µM | IC50 (recombinant human GALK1; [8]): 1.72 µM | Perm. (1 × 10^−6 cm/sec) (PAMPA permeability; PAMPA): 98.8 1 × 10^−6 cm/sec | Papp (PAMPA permeability; PAMPA): < 10 ×10⁻⁶ cm/s | Sol. ([2]; aqueous kinetic solubility): 42.0 µg/mL

CC1=C(C(=O)Nc2cc(C(=O)O)ccn2)C(c2ccccc2Cl)N=C(Nc2nc3cc(F)ccc3o2)N1 (centres unmarked) [Compound 13, 2-(4-(2-chlorophenyl)-2-((5-fluorobenzo[d]oxazol-2-yl)amino)-6-methyl-1,4-dihydropyrimidine-5-carboxamido)isonicotinic acid]
Emax (hGALK1m; [3]): 100% | IC50 (hGALK1m; [4]): 3.6 µM | half-life [1]: < 10 min | IC50 (recombinant mouse GALK1; [5]): 17.2 µM | IC50 (recombinant mouse GALK1; [6]): 17.2 µM | IC50 (recombinant human GALK1; [7]): 3.43 µM | Papp (PAMPA permeability; PAMPA): < 10 ×10⁻⁶ cm/s

CC1=C(C(=O)Nc2cc(C(=O)O)ccn2)[C@@H](c2ccccc2Cl)N=C(Nc2nc3ccccc3o2)N1 [S-enantiomer of Compound 194]
IC50 (hGALK1m; [13]): 0.3 µM

CC1=C(C(=O)Nc2cc(C(=O)O)ccn2)C(c2ccccc2Cl)N=C(Nc2nc3c(F)cccc3o2)N1 (centres unmarked) [Compound 8, 2-(4-(2-chlorophenyl)-6-methyl-2-((4-fluorobenzo[d]oxazol-2-yl)amino)-1,4-dihydropyrimidine-5-carboxamido)isonicotinic acid]
Emax (hGALK1m; [3]): 100% | IC50 (hGALK1m; [4]): 3.3 µM | IC50 (recombinant mouse GALK1; [5]): 21.7 µM | IC50 (recombinant mouse GALK1; [6]): 21.7 µM | IC50 (recombinant human GALK1; [8]): 3.85 µM

CC1=C(C(=O)Nc2cc(C(=O)O)ccn2)C(c2ccccc2Cl)N=C(Nc2nc3ccccc3o2)N1 (stereo not drawn) [R-enantiomer of Compound 194]
IC50 (hGALK1m; [4]): 15 µM

CC1=C(C(=O)NCc2cnn(C)c2)[C@@H](c2ccc(C)cc2Cl)N=C(Nc2nc3cccc(N)c3o2)N1 [S-enantiomer of Compound 83]
IC50 (hGALK1m; [13]): 0.029 µM

CC1=C(C(=O)Nc2ncc(C(=O)O)s2)C(c2ccccc2Cl)N=C(Nc2nc3ccccc3o2)N1 (centres unmarked) [Compound 199, 2-(2-(benzo[d]oxazol-2-ylamino)-4-(2-chlorophenyl)-6-methyl-1,4-dihydropyrimidine-5-carboxamido)thiazole-5-carboxylic acid]
Emax (hGALK1m; [9]): 91% | IC50 (hGALK1m; [10]): 1.7 µM | Metab. Stabil. (m) ([1]; microsomal stability half-life): >30 m | half-life [1]: < 10 min | IC50 (recombinant human GALK1; [7]): 1.72 µM | IC50 (recombinant human GALK1; [8]): 1.72 µM | Perm. (1 × 10^−6 cm/sec) (PAMPA permeability; PAMPA): <1 1 × 10^−6 cm/sec | Papp (PAMPA permeability; PAMPA): < 10 ×10⁻⁶ cm/s | Sol. ([2]; aqueous kinetic solubility): >75 µg/mL
